In patent publication US12630600B2 (MEDIMMUNE LIMITED, priority 2022, dated 2026):
Where two headings read alike, the source gives them in different places. Each block holds one molecule with its values, some of them ahead of it. Starred links: 1 amine or outer side, 2 acyl side, 3 side chain; linkers in the order of their positions; H or OH if unused. Non-standard residues stand in square brackets, D forms with d. Residues, ends and D or L forms follow the SMILES beside them. Groups on a side chain read outwards from the residue. *: point of attachment. C20 diacid = O=C(O)CCCCCCCCCCCCCCCCCCC(=O)*; C18 diacid = O=C(O)CCCCCCCCCCCCCCCCC(=O)*; γGlu = O=C(O)[C@H](CCC(=O)[*:2])N[*:1]; Stearoyl = CCCCCCCCCCCCCCCCCC(=O)*; αMeF = C[C@](N)(Cc1ccccc1)C(=O)O; PEG2 = NCCOCCOCCC(=O)O; AEEA = NCCOCCOCC(=O)O; Aib = CC(C)(N)C(=O)O

Experiments:
[1] = molecular target: T1, human glucagon receptor (hGCGR) (Homo sapiens, UniProt P47871); test: cAMP production (HTRF) in CHO cells expressing human glucagon receptor; format: cell-based; conditions: read-out: hGluc-R EC50
T1 construct: expressed in transfected cells; host or cells: CHO
T1 sequence (P47871 26-477): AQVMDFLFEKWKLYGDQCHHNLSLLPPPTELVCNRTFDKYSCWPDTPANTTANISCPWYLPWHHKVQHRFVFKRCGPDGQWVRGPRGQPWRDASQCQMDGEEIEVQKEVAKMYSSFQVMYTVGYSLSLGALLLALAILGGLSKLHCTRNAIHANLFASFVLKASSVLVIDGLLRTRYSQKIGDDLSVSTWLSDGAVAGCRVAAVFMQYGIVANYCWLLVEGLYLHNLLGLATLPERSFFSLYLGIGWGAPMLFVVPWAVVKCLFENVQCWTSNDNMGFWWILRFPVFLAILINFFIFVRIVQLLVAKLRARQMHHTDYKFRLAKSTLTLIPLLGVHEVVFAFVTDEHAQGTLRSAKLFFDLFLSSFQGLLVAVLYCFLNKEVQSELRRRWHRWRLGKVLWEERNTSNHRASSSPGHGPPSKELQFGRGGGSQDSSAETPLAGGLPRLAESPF
Procedure: Cells were re-suspended in assay buffer at a batch-dependent optimized concentration (typically hGLP-1R cells at 1×10^5 cells/mL, hGCGR cells at 2×10^5 cells/mL).
Cells were added to the assay plate using a multidrop dispenser and incubated at room temperature for 30 minutes before measuring the cAMP level using a cAMP dynamic 2 homogeneous time resolved Fluorescence (HTRF) kit (Cisbio Bioassays #62AM4PEJ) following the two-step protocol as per manufacturer's recommendations. In brief, anti-cAMP cryptate (donor fluorophore) and cAMP-d2 (acceptor fluorophore) were made up separately by diluting each 1 in 20 in conjugate and lysis buffer provided in the kit. Anti-cAMP cryptate was added to all wells of the assay plate, followed by cAMP-d2 added to all wells except non-specific binding (NSB) wells (to which conjugate and lysis buffer was added).
Data was transformed to % Delta F as described in the manufacturer's guidelines and analyzed by 4-parameter logistic fit to determine EC50 values.

[2] = molecular target: T2, human GLP-1 receptor (hGLP-1R) (Homo sapiens, UniProt P43220); test: cAMP production (HTRF) in CHO cells expressing human GLP-1 receptor; format: cell-based; conditions: for EC50: cAMP, geometric mean, read-out: hGLP-1R EC50; for % Relative Potency Ratio: % GLP-1R activity relative to GLP-1 / % GlucR activity relative to glucagon
T2 construct: expressed in transfected cells; host or cells: CHO
T2 sequence (P43220 24-463): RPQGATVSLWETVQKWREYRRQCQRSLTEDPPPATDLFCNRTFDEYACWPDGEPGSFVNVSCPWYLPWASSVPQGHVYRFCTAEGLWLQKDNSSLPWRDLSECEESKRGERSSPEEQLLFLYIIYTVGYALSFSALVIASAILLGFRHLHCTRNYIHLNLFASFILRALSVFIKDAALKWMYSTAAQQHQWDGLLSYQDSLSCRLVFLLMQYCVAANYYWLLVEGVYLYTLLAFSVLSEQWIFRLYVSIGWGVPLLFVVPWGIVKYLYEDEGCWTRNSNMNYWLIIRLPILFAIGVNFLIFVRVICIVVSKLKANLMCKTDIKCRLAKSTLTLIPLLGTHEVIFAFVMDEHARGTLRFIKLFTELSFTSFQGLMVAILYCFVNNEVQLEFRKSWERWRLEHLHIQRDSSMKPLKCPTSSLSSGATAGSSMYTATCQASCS

[3] = Table 6, modification at position 17, CHO cells expressing hGCGR, geometric mean
[4] = Table 8, peptides modified at position 24, geometric mean, CHO cells
[5] = Table 8, peptides modified at position 24, CHO cells

Compound: CC[C@H](C)[C@H](NC(=O)C(C)(C)NC(=O)[C@H](CCCCNC(=O)COCCOCCNC(=O)COCCOCCNC(=O)CC[C@H](NC(=O)CC[C@H](NC(=O)CCCCCCCCCCCCCCCCCCC(=O)O)C(=O)O)C(=O)O)NC(=O)[C@@H](NC(=O)[C@](C)(Cc1ccccc1)NC(=O)[C@H](CC(=O)O)NC(=O)[C@H](CCC(N)=O)NC(=O)[C@H](C)NC(=O)[C@H](C)NC(=O)[C@H](CCCNC(=N)N)NC(=O)[C@H](CO)NC(=O)[C@H](CC(=O)O)NC(=O)[C@H](CC(C)C)NC(=O)[C@](C)(Cc1ccccc1)NC(=O)[C@H](CCCCN)NC(=O)[C@H](CO)NC(=O)[C@@H](NC(=O)[C@H](CC(=O)O)NC(=O)[C@H](CO)NC(=O)[C@@H](NC(=O)[C@](C)(Cc1ccccc1)NC(=O)[C@H](CO)NC(=O)CNC(=O)[C@H](Cc1c[nH]cn1)NC(=O)C(C)(C)NC(=O)[C@@H](N)Cc1c[nH]cn1)[C@@H](C)O)C(C)C)C(C)C)C(=O)N[C@@H](C)C(=O)N[C@@H](CC(N)=O)C(=O)N[C@H](C(=O)NCC(=O)NCC(N)=O)[C@@H](C)O [Peptide 376] (H-H[Aib]HGS[αMeF]TSDVSK[αMeF]LDSRAAQD[αMeF]VK([AEEA-AEEA-γGlu-γGlu-C20 diacid])[Aib]IANTGG-NH2; N-terminus assumed)
- EC50 [1, 4]: 0.853 nM
- EC50 [2, 5]: 0.156 nM
- % Relative Potency Ratio ([2]; Table 8): 10.8

Compound: CC(C)C[C@H](NC(=O)[C@H](Cc1c[nH]c2ccccc12)NC(=O)[C@H](CCCNC(=N)N)NC(=O)[C@@H](NC(=O)[C@H](Cc1ccccc1)NC(=O)[C@H](CC(=O)O)NC(=O)[C@H](CCCNC(=N)N)NC(=O)[C@H](C)NC(=O)[C@H](CCCNC(=N)N)NC(=O)[C@H](CCCCNC(=O)CC[C@H](NC(=O)CC[C@H](NC(=O)COCCOCCNC(=O)COCCOCCNC(=O)CC[C@H](NC(=O)CC[C@H](NC(=O)CCCCCCCCCCCCCCCCC(=O)O)C(=O)O)C(=O)O)C(=O)O)C(=O)O)NC(=O)[C@H](CO)NC(=O)[C@H](CC(=O)O)NC(=O)[C@H](CC(C)C)NC(=O)[C@](C)(Cc1ccccc1)NC(=O)[C@H](CCCCN)NC(=O)[C@H](CO)NC(=O)[C@@H](NC(=O)[C@H](CC(=O)O)NC(=O)[C@H](CO)NC(=O)[C@@H](NC(=O)[C@H](Cc1ccccc1)NC(=O)[C@@H](NC(=O)CNC(=O)[C@H](CCC(N)=O)NC(=O)C(C)(C)NC(=O)[C@@H](N)Cc1c[nH]cn1)[C@@H](C)O)[C@@H](C)O)C(C)C)C(C)C)C(=O)N[C@@H](CC(C)C)C(=O)N[C@@H](CCC(=O)O)C(=O)NC(C)(C)C(=O)NCC(=O)O [Peptide 136] (H-H[Aib]QGTFTSDVSK[αMeF]LDSK([γGlu-γGlu-AEEA-AEEA-γGlu-γGlu-C18 diacid])RARDFVRWLLE[Aib]G-OH; N-terminus assumed)
- EC50 [1, 3]: 0.509 nM

Compound: CCCCCCCCCCCCCCCC(=O)N[C@@H](CCC(=O)NCCOCCOCCC(=O)NCCOCCOCCC(=O)NCCCC[C@H](NC(=O)[C@H](CC(=O)O)NC(=O)[C@H](CO)NC(=O)[C@@H](NC(=O)[C@H](Cc1ccccc1)NC(=O)[C@H](CO)NC(=O)CNC(=O)[C@H](CCC(N)=O)NC(=O)C(C)(C)NC(=O)[C@@H](N)Cc1c[nH]cn1)[C@@H](C)O)C(=O)N[C@@H](CO)C(=O)N[C@@H](CCCCN)C(=O)N[C@H](C(=O)N[C@@H](CC(C)C)C(=O)N[C@@H](CC(=O)O)C(=O)N[C@@H](CO)C(=O)N[C@@H](CCCNC(=N)N)C(=O)N[C@@H](C)C(=O)N[C@@H](C)C(=O)N[C@@H](CCC(N)=O)C(=O)N[C@@H](CC(=O)O)C(=O)N[C@@H](Cc1ccccc1)C(=O)N[C@H](C(=O)N[C@@H](CCC(=O)O)C(=O)N[C@@H](Cc1c[nH]c2ccccc12)C(=O)N[C@H](C(=O)N[C@@H](C)C(=O)N[C@@H](CC(N)=O)C(=O)N[C@H](C(N)=O)[C@@H](C)O)[C@@H](C)CC)C(C)C)[C@@H](C)CC)C(=O)O [Peptide 395]
- EC50 ([1]; Table 9, peptides modified at position 10, geometric mean, CHO cells): 0.00955 nM

Results, then the molecule that gave them:

- EC50 [1, 3]: 0.462 nM
- EC50 ([2]; Table 6, modification at position 17, CHO cells expressing hGLP-1R): 0.209 nM
Compound: CC(C)C[C@H](NC(=O)[C@H](Cc1c[nH]c2ccccc12)NC(=O)[C@H](CCCNC(=N)N)NC(=O)[C@@H](NC(=O)[C@H](Cc1ccccc1)NC(=O)[C@H](CC(=O)O)NC(=O)[C@H](CCC(N)=O)NC(=O)[C@H](C)NC(=O)[C@H](CCCNC(=N)N)NC(=O)[C@H](CCCCNC(=O)COCCOCCNC(=O)COCCOCCNC(=O)CC[C@H](NC(=O)CCCCCCCCCCCCCCCCCCC(=O)O)C(=O)O)NC(=O)[C@@H](NC(=O)[C@H](CC(=O)O)NC(=O)[C@H](CC(C)C)NC(=O)[C@](C)(Cc1ccccc1)NC(=O)[C@H](CCCCN)NC(=O)[C@H](CO)NC(=O)[C@@H](NC(=O)[C@H](CC(=O)O)NC(=O)[C@H](CO)NC(=O)[C@@H](NC(=O)[C@H](Cc1ccccc1)NC(=O)[C@@H](NC(=O)CNC(=O)[C@H](CCC(N)=O)NC(=O)C(C)(C)NC(=O)[C@@H](N)Cc1c[nH]cn1)[C@@H](C)O)[C@@H](C)O)C(C)C)[C@@H](C)O)C(C)C)C(=O)N[C@@H](CCC(=O)O)C(=O)N[C@@H](C)C(=O)NC(C)(C)C(=O)NCC(=O)O [Peptide 407]

- EC50 [1, 4]: 0.0351 nM
- EC50 [2, 5]: 0.0718 nM
- % Relative Potency Ratio ([2]; Table 8): 1.0
Compound: CC[C@H](C)[C@H](NC(=O)C(C)(C)NC(=O)[C@H](CCCCNC(=O)COCCOCCNC(=O)COCCOCCNC(=O)CC[C@H](NC(=O)CC[C@H](NC(=O)CCCCCCCCCCCCCCCCC(=O)O)C(=O)O)C(=O)O)NC(=O)[C@@H](NC(=O)[C@](C)(Cc1ccccc1)NC(=O)[C@H](CC(=O)O)NC(=O)[C@H](CCC(N)=O)NC(=O)[C@H](C)NC(=O)[C@H](C)NC(=O)[C@H](CCCNC(=N)N)NC(=O)[C@H](CO)NC(=O)[C@H](CC(=O)O)NC(=O)[C@H](CC(C)C)NC(=O)[C@](C)(Cc1ccccc1)NC(=O)[C@H](CCCCN)NC(=O)[C@H](CO)NC(=O)[C@@H](NC(=O)[C@H](CC(=O)O)NC(=O)[C@H](CO)NC(=O)[C@@H](NC(=O)[C@](C)(Cc1ccccc1)NC(=O)[C@H](CO)NC(=O)CNC(=O)[C@H](Cc1c[nH]cn1)NC(=O)C(C)(C)NC(=O)[C@@H](N)Cc1c[nH]cn1)[C@@H](C)O)C(C)C)C(C)C)C(=O)N[C@@H](C)C(=O)N[C@@H](CC(N)=O)C(=O)N[C@H](C(N)=O)[C@@H](C)O [Peptide 372] (H-H[Aib]HGS[αMeF]TSDVSK[αMeF]LDSRAAQD[αMeF]VK([AEEA-AEEA-γGlu-γGlu-C18 diacid])[Aib]IANT-NH2; N-terminus assumed)

- EC50 ([1]; Table 10, peptides modified at position 13, geometric mean, CHO cells): 8.59 nM
- EC50 ([2]; Table 10, peptides modified at position 13, CHO cells): 1.04 nM
- % Relative Potency Ratio ([2]; Table 10): 16.3
Compound: CC[C@H](C)[C@H](NC(=O)C(C)(C)NC(=O)[C@H](CCC(N)=O)NC(=O)[C@@H](NC(=O)[C@](C)(Cc1ccccc1)NC(=O)[C@H](CC(=O)O)NC(=O)[C@H](CCC(N)=O)NC(=O)[C@H](C)NC(=O)[C@H](C)NC(=O)[C@H](CCCNC(=N)N)NC(=O)[C@H](CO)NC(=O)[C@H](CC(=O)O)NC(=O)[C@H](CC(C)C)NC(=O)[C@H](CCCCNC(=O)COCCOCCNC(=O)COCCOCCNC(=O)CC[C@H](NC(=O)CC[C@H](NC(=O)CCCCCCCCCCCCCCCCCCC(=O)O)C(=O)O)C(=O)O)NC(=O)[C@H](CCCCN)NC(=O)[C@H](CO)NC(=O)[C@@H](NC(=O)[C@H](CC(=O)O)NC(=O)[C@H](CO)NC(=O)[C@@H](NC(=O)[C@](C)(Cc1ccccc1)NC(=O)[C@H](CO)NC(=O)CNC(=O)[C@H](Cc1c[nH]cn1)NC(=O)C(C)(C)NC(=O)[C@@H](N)Cc1c[nH]cn1)[C@@H](C)O)C(C)C)C(C)C)C(=O)N[C@@H](C)C(=O)N[C@@H](CC(N)=O)C(=O)N[C@H](C(N)=O)[C@@H](C)O [Peptide 405] (H-H[Aib]HGS[αMeF]TSDVSKK([AEEA-AEEA-γGlu-γGlu-C20 diacid])LDSRAAQD[αMeF]VQ[Aib]IANT-NH2)

- EC50 [1, 3]: 0.00777 nM
Compound: CCCCCCCCCCCCCCCCCC(=O)N[C@@H](CCC(=O)N[C@@H](CCC(=O)NCCOCCOCCC(=O)NCCOCCOCCC(=O)NCCCC[C@H](NC(=O)[C@H](CO)NC(=O)[C@H](CC(=O)O)NC(=O)[C@H](CC(C)C)NC(=O)[C@](C)(Cc1ccccc1)NC(=O)[C@H](CCCCN)NC(=O)[C@H](CO)NC(=O)[C@@H](NC(=O)[C@H](CC(=O)O)NC(=O)[C@H](CO)NC(=O)[C@@H](NC(=O)[C@](C)(Cc1ccccc1)NC(=O)[C@H](CO)NC(=O)CNC(=O)[C@H](CCC(N)=O)NC(=O)[C@H](CO)NC(=O)[C@@H](N)Cc1c[nH]cn1)[C@@H](C)O)C(C)C)C(=O)N[C@@H](C)C(=O)N[C@@H](C)C(=O)N[C@@H](CCC(N)=O)C(=O)N[C@@H](CC(=O)O)C(=O)N[C@@](C)(Cc1ccccc1)C(=O)N[C@H](C(=O)N[C@@H](CCC(N)=O)C(=O)NC(C)(C)C(=O)N[C@H](C(=O)N[C@@H](C)C(=O)N[C@@H](CC(N)=O)C(=O)N[C@H](C(N)=O)[C@@H](C)O)[C@@H](C)CC)C(C)C)C(=O)O)C(=O)O [Peptide 82] (H-HSQGS[αMeF]TSDVSK[αMeF]LDSK([PEG2-PEG2-γGlu-γGlu-Stearoyl])AAQD[αMeF]VQ[Aib]IANT-NH2; N-terminus assumed)
